From patent US6177469A, “Lipid alcohols as new immunosuppressive and antiviral drugs” (priority 1995, dated 2001)
Where two headings read alike, the source gives them in different places.

Tests used:
[1] = cytotoxicity in CEM-SS cells by uptake of TdR-^3H into total DNA; format: cell-based; conditions: human, TdR-^3H uptake into total DNA, read-out: IC50 cytotoxicity
Method: (§1) The cell cytotoxicity and the anti-HIV-1-activity in CEM-SS cells of selected lipid alcohols are stated in table 1.
(§2) The cytotoxicity was determined by uptake of TdR-^3 H into the total DNA at various concentrations of the stated compounds. The anti-HIV 1 activity was determined using a standard plaque assay of a CEM-SS cell monolayer. The differential selectivity results from the quotient of the IC50 and anti-HIV 1 activity concentrations. ND means not determined.

HIV-1 = assay: anti-HIV-1 activity, standard plaque assay of a CEM-SS cell monolayer; format: cell-based; conditions: for IC50: read-out: IC50 anti-HIV-1; for Diff. selectivity: quotient of cytotoxicity IC50 and anti-HIV 1 IC50
Method: as §1, §2

[2] = Human immunodeficiency virus 1, CEM-SS cell monolayer, plaque assay

## CCCCCCCCCCCC[S+]([O-])CC(CO)OCCCCCCCCCC (stereo not shown) [3-dodecylsulfinyl-2-decyloxy-1-propanol]
[1]
  CC50: 36.8 µM
HIV-1; [2]
  IC50: 0.18 µM
HIV-1
  Diff. selectivity: 204.22

## CCCCCCCCCCOC(CO)CSCC(C)CCCCCCCCC (stereo not shown) [3-(2-methyl-undecyl)mercapto-2-decyloxy-1-propanol]
[1]
  CC50: > 100 µM
HIV-1; Human immunodeficiency virus 1, CEM-SS
  IC50: 51.2 µM
HIV-1
  Diff. selectivity: > 1.95

## CCCCCCCCCCCCS(=O)(=O)CC(CO)OCCCCCCCCCC (stereo not shown) [3-dodecylsulfonyl-2-decyloxy-1-propanol]
[1]
  CC50: 32.7 µM
HIV-1; [2]
  IC50: 0.54 µM
HIV-1
  Diff. selectivity: 60.52

## CCCCCCCCCCCOC(CO)CSCCCCCCCCCCC (stereo not shown) [3-undecylmercapto-2-undecyloxy-1-propanol]
[1]
  CC50: > 100 µM
HIV-1; [2]
  IC50: 2.95 µM
HIV-1
  Diff. selectivity: > 33.90

## CCCCCCCCCCCCOC(CO)CSCCCCCCCCCCCC (stereo not shown) [3-dodecylmercapto-2-dodecyloxy-1-propanol]
[1]
  CC50: > 100 µM
HIV-1; [2]
  IC50: > 20 µM

## CCCCCCCCCCCCCCSCC(CO)OCCCCCCCCCC (stereo not shown) [3-tetradecylmercapto-2-decyloxy-1-propanol]
[1]
  CC50: > 100 µM
HIV-1; [2]
  IC50: > 20 µM

## CCCCCCCCCCCCSCC(CO)OCCCCCCCC (stereo not shown) [3-dodecylmercapto-2-octyloxy-1-propanol]
[1]
  CC50: > 90.6 µM
HIV-1; [2]
  IC50: 7.01 µM
HIV-1
  Diff. selectivity: > 12.92
